This is an account of results in paper PMC8708689.

Data set [1] deals with H-ferritin IRE RNA (RNA, mRNA element) GGGGUUUCCUGCUUCAACAGUGCUUGGACGGAACC
Put plainly: microscale thermophoresis, labelled IRP1. The note with it: 150 mM NaCl; IRP1/RNA complex, RNA alone not tested; 2 nM IRP1, 250 nM RNA; same buffer; Posiphen to 50 µM. (Microscale thermophoresis detects binding through changes in fluorescence in a small temperature gradient.)

Data set [2] relates to APP IRE RNA (RNA, mRNA element) GGUGGCGGCGCGGGCAGAGCAAGGACGCGGCGGAU
Put plainly: microscale thermophoresis, labelled IRP1. The following applies: 150 mM NaCl; binds IRP1/RNA complex, RNA alone not tested; 2 nM IRP1, 600 nM RNA; 25 mM Tris pH 7.4, 0.1% Prionex.

Data set [3] has as its target T1, IRP1 (iron regulatory protein 1) (UniProt P21399 1-889).
T1 sequence: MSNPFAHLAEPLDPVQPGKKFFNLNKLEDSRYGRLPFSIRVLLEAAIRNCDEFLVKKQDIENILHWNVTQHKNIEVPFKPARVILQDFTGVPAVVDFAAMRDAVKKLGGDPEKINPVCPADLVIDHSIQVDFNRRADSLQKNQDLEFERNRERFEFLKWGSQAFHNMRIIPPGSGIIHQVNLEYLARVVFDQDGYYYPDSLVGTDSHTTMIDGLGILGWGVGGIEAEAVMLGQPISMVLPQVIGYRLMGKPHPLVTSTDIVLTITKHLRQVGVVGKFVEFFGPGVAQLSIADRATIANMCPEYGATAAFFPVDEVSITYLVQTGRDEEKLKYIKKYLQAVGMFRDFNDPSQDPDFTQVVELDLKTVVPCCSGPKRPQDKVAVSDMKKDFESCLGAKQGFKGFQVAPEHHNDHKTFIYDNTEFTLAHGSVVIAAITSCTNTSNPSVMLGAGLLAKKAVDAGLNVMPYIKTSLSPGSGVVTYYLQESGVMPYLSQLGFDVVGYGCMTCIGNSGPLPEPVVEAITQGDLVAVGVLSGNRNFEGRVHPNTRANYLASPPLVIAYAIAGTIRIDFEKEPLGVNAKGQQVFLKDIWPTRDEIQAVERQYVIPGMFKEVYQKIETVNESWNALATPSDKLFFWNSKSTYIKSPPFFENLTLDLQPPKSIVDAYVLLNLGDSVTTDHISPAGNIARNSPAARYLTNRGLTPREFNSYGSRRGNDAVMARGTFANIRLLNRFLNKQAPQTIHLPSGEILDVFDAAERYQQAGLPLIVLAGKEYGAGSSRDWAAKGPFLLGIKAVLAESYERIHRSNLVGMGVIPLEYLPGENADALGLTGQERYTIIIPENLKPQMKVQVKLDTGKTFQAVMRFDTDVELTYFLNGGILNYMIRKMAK
Put plainly: MST; no Posiphen; MST: 2 nM labeled IRP1, 25 mM Tris pH 7.4, 150 mM NaCl, 0.1% Prionex, 10 min incubation; temperature not stated. The note with it: protein: commercial; hairpin.

In the case of `CN1CC[C@]2(C)c3cc(OC(=O)Nc4ccccc4)ccc3N(C)[C@H]12`, the binding entry in data set [1] was “no”. Also, the Kd in data set [2] is listed as 3.2 nM. In data set [3], GGGGUUUCCUGCUUCAACAGUGCUUGGACGGAACC (structured_RNA) [H-ferritin IRE RNA (canonical)] gave a Kd of 88.5 nM. The same measure, in the same setting: the same measure for GGUGGCGGCGCGGGCAGAGCAAGGACGCGGCGGAU (structured_RNA) [APP IRE RNA (atypical)]: 225 nM.
